This passage reports IC50 results from patent US20250163104A1, “MACROCYCLIC IMMUNOMODULATORS” (priority 2021, published 2025).

The term IC50 denotes the midpoint of a concentration-inhibition curve.

Where two headings read alike, the source gives them in different places. Where a SMILES comes first, the peptide text is derived from it. Bridges are numbered along the chain shown (N, C = ends). [ ]: non-standard residue; d: D form. The star is where a group is joined. ξ: configuration not given here. Phe(3-CF3) = N[C@@H](Cc1cccc(C(F)(F)F)c1)C(=O)O; Ala(morpholin-4-yl) = N[C@@H](CN1CCOCC1)C(=O)O; Phe(4-COOH) = N[C@@H](Cc1ccc(C(=O)O)cc1)C(=O)O; Phe(4-CH2NH2) = NCc1ccc(C[C@H](N)C(=O)O)cc1; Bip = N[C@@H](Cc1ccc(-c2ccccc2)cc1)C(=O)O; Phe(3-Me) = Cc1cccc(C[C@H](N)C(=O)O)c1; 2Nal = N[C@@H](Cc1ccc2ccccc2c1)C(=O)O; Val(3-OH) = CC(C)(O)[C@H](N)C(=O)O; hArg = N=C(N)NCCCC[C@H](N)C(=O)O; 4Pal = N[C@@H](Cc1ccncc1)C(=O)O; Cha = N[C@@H](CC1CCCCC1)C(=O)O; Cit = NC(=O)NCCC[C@H](N)C(=O)O; Ile(3ξ) = CCC(C)[C@H](N)C(=O)O; NMeN = CN[C@@H](CC(N)=O)C(=O)O; Thr(3ξ) = CC(O)[C@H](N)C(=O)O; Carboxymethyl = O=C(O)C*; Orn = NCCC[C@H](N)C(=O)O; Pra = C#CC[C@H](N)C(=O)O; Dab = NCC[C@H](N)C(=O)O; Dap = NC[C@H](N)C(=O)O; Bn = c1ccc(C*)cc1

This assay has as its target T1, human PD-1 / PD-L1-Ig binding on Jurkat cell line over-expressing human PD-1 (Jurkat-PD-1) (Homo sapiens, UniProt Q15116).
T1 construct: expressed in transfected cells; host or cells: Jurkat
Description: Jurkat-PD-1 Cell Binding High-Content Screening Assay (CBA). In kind it is cell-based. Conditions: PE-labeled PD-L1-Ig 20 nM final. The method, boiled down:
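Jurkat cells over-expressing human PD-1, in DMEM/10% FCS, pre-incubated with compound 2 h at 37° C. PE-labeled human PD-L1-Ig (20 nM final) added for 1 h; cells fixed in paraformaldehyde with Hoechst 33342 nuclear stain, washed, and bound fluorescence quantified by high-content imaging.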

[1] abbreviates: Jurkat-PD-1 cells, read-out: Jurkat HPD1_PDL1 IC50.

T1 sequence (Q15116 25-288): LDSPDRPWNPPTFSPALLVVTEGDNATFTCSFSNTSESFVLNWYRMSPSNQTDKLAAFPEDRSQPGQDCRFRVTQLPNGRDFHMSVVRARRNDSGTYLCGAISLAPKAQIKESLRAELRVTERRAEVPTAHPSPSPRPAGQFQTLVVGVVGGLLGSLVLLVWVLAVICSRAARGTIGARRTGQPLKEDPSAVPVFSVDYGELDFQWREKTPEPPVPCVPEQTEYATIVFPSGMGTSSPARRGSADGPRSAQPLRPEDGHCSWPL

As for `CC(C)C[C@@H]1NC(=O)[C@H](CCCCN)NC(=O)[C@@H](CC(C)C)NC(=O)[C@H](CCCN)NC(=O)[C@H](C(C)C)NC(=O)[C@H](Cc2ccc(-c3ccccc3)cc2)NC(=O)[C@H](C(C)C)NC(=O)[C@H](Cc2c[nH]c3ccccc23)NC(=O)[C@H](CC(=O)O)NC(=O)[C@H](Cc2ccc(O)cc2)NC(=O)[C@H](CC(N)=O)NC(=O)CSC[C@@H](C(=O)N[C@@H](C)C(N)=O)NC(=O)[C@H](CO)NC(=O)[C@H](C(C)C)NC1=O` [Compound 1132] ({CH2CO}-NYDWV[Bip]V[Orn][dL]KLVSCA-NH2; thioether N-14), under setting [1], the IC50 came out at 20.7 nM.

In the case of `C#CC[C@H](NC(=O)[C@@H](C)NC(=O)[C@@H]1CSCC(=O)N[C@@H](Cc2c[nH]cn2)C(=O)N[C@@H](Cc2ccc(OCC(=O)O)cc2)C(=O)N[C@@H](CC(=O)O)C(=O)N[C@@H](Cc2c[nH]c3ccccc23)C(=O)N[C@@H](C(C)C)C(=O)N[C@@H](Cc2ccc(-c3ccccc3)cc2)C(=O)N[C@@H](C(C)C)C(=O)N[C@@H](CCCN)C(=O)N[C@H](CC(C)C)C(=O)N[C@@H](CCN)C(=O)N[C@@H](CC2CCCCC2)C(=O)N[C@@H](C(C)(C)O)C(=O)N[C@@H](CO)C(=O)N1)C(N)=O` [Compound 2326] ({CH2CO}-HY(Carboxymethyl)DWV[Bip]V[Orn][dL][Dab][Cha][Val(3-OH)]SC[dA][Pra]-NH2; thioether N-14), the IC50 under setting [1] is 7.7 nM.

`Cc1cccc(C[C@@H]2NC(=O)[C@H](CC(=O)O)NC(=O)[C@H](Cc3ccc(OCC(=O)O)cc3)NC(=O)[C@H](Cc3ccc(OCC(=O)O)cc3)NC(=O)CSC[C@@H](C(=O)N[C@@H](C)C(N)=O)NC(=O)[C@H]([C@@H](C)O)NC(=O)[C@H](C(C)C)NC(=O)[C@H](CC3CCCCC3)NC(=O)[C@H](CCN)NC(=O)[C@@H](CC(C)C)NC(=O)[C@H](CCCN)NC(=O)[C@H](C(C)C)NC(=O)[C@H](Cc3ccc(-c4ccccc4)cc3)NC(=O)[C@H](C(C)C)NC2=O)c1` [Compound 1572]: under setting [1], the IC50 stood at 17.2 nM.

Turning to `C#CC[C@H](NC(=O)CNC(=O)[C@@H]1CSCC(=O)N[C@@H](CN)C(=O)N[C@@H](Cc2ccc(OCC(=O)O)cc2)C(=O)N[C@@H](CC(=O)O)C(=O)N[C@@H](Cc2cccc(C)c2)C(=O)N[C@@H](C(C)C)C(=O)N[C@@H](Cc2ccc(-c3ccccc3)cc2)C(=O)N[C@@H](CCCNC(N)=O)C(=O)N[C@@H](CCCN)C(=O)N[C@H](CC(C)C)C(=O)N[C@@H](CCN)C(=O)N[C@@H](CC2CCCCC2)C(=O)N[C@@H](C(C)C)C(=O)N[C@@H]([C@@H](C)O)C(=O)N1)C(=O)O` [Compound 2263] ({CH2CO}-[Dap]Y(Carboxymethyl)D[Phe(3-Me)]V[Bip][Cit][Orn][dL][Dab][Cha]VTCG[Pra]-OH; thioether N-14), the IC50 under setting [1] came out at 12.1 nM.

`CCC(C)[C@@H]1NC(=O)[C@H](Cc2ccc(-c3ccccc3)cc2)NC(=O)[C@H](CC(C)C)NC(=O)[C@H](Cc2c[nH]c3ccccc23)NC(=O)[C@H](CC(=O)O)NC(=O)[C@H](Cc2ccc(OCC(=O)O)cc2)NC(=O)[C@H](Cc2ccncc2)NC(=O)CSC[C@@H](C(=O)N[C@@H](CC(N)=O)C(=O)O)NC(=O)[C@H](CO)NC(=O)[C@H](C(C)C)NC(=O)[C@H](CC(C)C)NC(=O)[C@H](CCN)NC(=O)[C@@H](CC(C)C)NC(=O)[C@H](CCCN)NC1=O` (stereo partly drawn) [Compound 2582] ({CH2CO}-[4Pal]Y(Carboxymethyl)DWL[Bip][Ile(3ξ)][Orn][dL][Dab]LVSCN-OH; thioether N-14): the IC50 (read-out: Jurkat HPD1_PDL1 IC50, Jurkat-PD-1 cells) was 9.8 nM.

On to `CC(C)C[C@H]1NC(=O)[C@H](CCCN)NC(=O)[C@H](C(C)C)NC(=O)[C@H](Cc2ccc(-c3ccccc3)cc2)NC(=O)[C@H](C(C)C)NC(=O)[C@H](Cc2c[nH]c3ccccc23)NC(=O)[C@H](CC(=O)O)NC(=O)[C@H](Cc2ccc(OCC(=O)O)cc2)NC(=O)[C@H](Cc2ccncc2)NC(=O)CSC[C@@H](C(=O)N[C@@H](CCN)C(N)=O)NC(=O)[C@H](C(C)O)NC(=O)[C@H](C(C)(C)O)NC(=O)[C@H](CC2CCCCC2)NC(=O)[C@H](CCN)NC1=O` (stereo partly drawn) [Compound 2629] ({CH2CO}-[4Pal]Y(Carboxymethyl)DWV[Bip]V[Orn][dL][Dab][Cha][Val(3-OH)][Thr(3ξ)]C[Dab]-NH2; thioether N-14), for which the IC50 under setting [1] was found to be 10.6 nM.

As for `CC(C)C[C@H]1NC(=O)[C@H](CCCN)NC(=O)[C@H](Cc2ccc(C(=O)O)cc2)NC(=O)[C@H](Cc2ccc(-c3ccccc3)cc2)NC(=O)[C@H](Cc2ccc(CN)cc2)NC(=O)[C@H](Cc2cccc(C(F)(F)F)c2)NC(=O)[C@H](CC(=O)O)NC(=O)[C@H](Cc2ccc(C(=O)O)cc2)NC(=O)[C@H](CN2CCOCC2)NC(=O)CSC[C@@H](C(=O)N[C@@H](CCN)C(N)=O)NC(=O)[C@H](CCC(=O)O)NC(=O)[C@H](C(C)C)NC(=O)[C@H](CC2CCCCC2)NC(=O)[C@H](CCN)NC1=O` [Example 2747] ({CH2CO}-[Ala(morpholin-4-yl)][Phe(4-COOH)]D[Phe(3-CF3)][Phe(4-CH2NH2)][Bip][Phe(4-COOH)][Orn][dL][Dab][Cha]VEC[Dab]-NH2; thioether N-14), the IC50 under setting [1] was 2.8 nM.

For `CC(C)C[C@H]1NC(=O)[C@H](CCCN)NC(=O)[C@H](Cc2ccc(C(=O)O)cc2)NC(=O)[C@H](Cc2ccc(-c3ccccc3)cc2)NC(=O)[C@H](Cc2ccc3ccccc3c2)NC(=O)[C@H](Cc2cccc(C(F)(F)F)c2)NC(=O)[C@H](CC(=O)O)NC(=O)[C@H](Cc2ccc(C(=O)O)cc2)NC(=O)[C@H](CN2CCOCC2)NC(=O)CSC[C@@H](C(=O)N[C@@H](CCN)C(N)=O)NC(=O)[C@H](CCC(=O)O)NC(=O)[C@H](C(C)C)NC(=O)[C@H](CC2CCCCC2)NC(=O)[C@H](CCN)NC1=O` [Example 2738] ({CH2CO}-[Ala(morpholin-4-yl)][Phe(4-COOH)]D[Phe(3-CF3)][2Nal][Bip][Phe(4-COOH)][Orn][dL][Dab][Cha]VEC[Dab]-NH2; thioether N-14), the IC50 under setting [1] turned out to be 2.3 nM.

For the molecule `CC(C)C[C@H]1NC(=O)[C@H](CCCN)NC(=O)[C@H](Cc2cnc[nH]2)NC(=O)[C@H](Cc2ccc(-c3ccccc3)cc2)NC(=O)[C@H](C(C)C)NC(=O)[C@H](Cc2c[nH]c3ccccc23)NC(=O)[C@H](CC(=O)O)NC(=O)[C@H](Cc2ccc(OCC(=O)O)cc2)NC(=O)[C@H](Cc2ccccc2)NC(=O)CSC[C@@H](C(=O)N[C@@H](CC(N)=O)C(N)=O)NC(=O)[C@H](CO)NC(=O)[C@H](C(C)C)NC(=O)[C@H](CC2CCCCC2)NC(=O)[C@H](CCN)NC1=O` [Compound 2560] ({CH2CO}-FY(Carboxymethyl)DWV[Bip]H[Orn][dL][Dab][Cha]VSCN-NH2; thioether N-14), under setting [1], the IC50 worked out at 9.4 nM.

As for `CC(C)C[C@H]1NC(=O)[C@H](CCCN)NC(=O)[C@H](C(C)C)NC(=O)[C@H](Cc2ccc(-c3ccccc3)cc2)NC(=O)[C@H](Cc2ccc(OCc3ccccc3)cc2)NC(=O)[C@H](Cc2c[nH]c3ccccc23)NC(=O)[C@H](CC(=O)O)NC(=O)[C@H](Cc2ccc(OCC(=O)O)cc2)NC(=O)[C@H](CN)NC(=O)CSC[C@@H](C(=O)N[C@@H](C)C(N)=O)NC(=O)[C@H]([C@@H](C)O)NC(=O)[C@H](C(C)C)NC(=O)[C@H](CC2CCCCC2)NC(=O)[C@H](CCN)NC1=O` [Compound 1529] ({CH2CO}-[Dap]Y(Carboxymethyl)DWY(Bn)[Bip]V[Orn][dL][Dab][Cha]VTCA-NH2; thioether N-14), the IC50 (Jurkat HPD1_PDL1 IC50, Jurkat-PD-1 cells) stood at 43.5 nM.

As for `CC(C)C[C@H]1NC(=O)[C@H](CCCN)NC(=O)[C@H](C(C)C)NC(=O)[C@H](Cc2ccc(-c3ccccc3)cc2)NC(=O)[C@H](C(C)C)NC(=O)[C@H](Cc2c[nH]c3ccccc23)NC(=O)[C@H](CC(=O)O)NC(=O)[C@H](Cc2ccc(OCC(=O)O)cc2)NC(=O)[C@H](CCCCNC(=N)N)NC(=O)CSC[C@@H](C(=O)N(C)[C@@H](CC(N)=O)C(N)=O)NC(=O)[C@H](CO)NC(=O)[C@H](C(C)C)NC(=O)[C@H](CC2CCCCC2)NC(=O)[C@H](CCN)NC1=O` [Compound 2567] ({CH2CO}-[hArg]Y(Carboxymethyl)DWV[Bip]V[Orn][dL][Dab][Cha]VSC[NMeN]-NH2; thioether N-14), the IC50 under setting [1] is 23.9 nM.

For the molecule `CC(C)C[C@H]1NC(=O)[C@H](CCCN)NC(=O)[C@H](CCCNC(N)=O)NC(=O)[C@H](Cc2ccc(-c3ccccc3)cc2)NC(=O)[C@H](C(C)C)NC(=O)[C@H](Cc2c[nH]c3ccccc23)NC(=O)[C@H](CC(=O)O)NC(=O)[C@H](Cc2ccc3ncccc3c2)NC(=O)[C@H](CN)NC(=O)CSC[C@@H](C(=O)N[C@@H](C)C(N)=O)NC(=O)[C@H]([C@@H](C)O)NC(=O)[C@H](C(C)C)NC(=O)[C@H](CC2CCCCC2)NC(=O)[C@H](CCN)NC1=O` [Compound 2116], the IC50 under setting [1] was determined as 8.9 nM.

As for `CC(C)C[C@H]1NC(=O)[C@H](CCCN)NC(=O)[C@H](CCC(=O)O)NC(=O)[C@H](Cc2ccc(-c3ccccc3)cc2)NC(=O)[C@H](C(C)C)NC(=O)[C@H](Cc2ccc(O)cc2)NC(=O)[C@H](CC(=O)O)NC(=O)[C@H](Cc2ccc(OCC(=O)O)cc2)NC(=O)[C@H](CN)NC(=O)CSC[C@@H](C(=O)N[C@@H](C)C(N)=O)NC(=O)[C@H]([C@@H](C)O)NC(=O)[C@H](C(C)C)NC(=O)[C@H](CC2CCCCC2)NC(=O)[C@H](CCN)NC1=O` [Compound 2141] ({CH2CO}-[Dap]Y(Carboxymethyl)DYV[Bip]E[Orn][dL][Dab][Cha]VTCA-NH2; thioether N-14), the IC50 under setting [1] worked out at 26.1 nM.

`CC(C)C[C@@H]1NC(=O)[C@H](CCCNC(=N)N)NC(=O)[C@@H](CC(C)C)NC(=O)[C@H](CCCN)NC(=O)[C@H](CCCNC(=N)N)NC(=O)[C@H](Cc2ccc(-c3ccccc3)cc2)NC(=O)[C@H](C(C)C)NC(=O)[C@H](Cc2c[nH]c3ccccc23)NC(=O)[C@H](CC(=O)O)NC(=O)[C@H](Cc2ccc(O)cc2)NC(=O)[C@H](CC(N)=O)NC(=O)CSC[C@@H](C(=O)N[C@@H](C)C(N)=O)NC(=O)[C@H]([C@@H](C)O)NC(=O)[C@H](C(C)C)NC1=O` [Compound 1012] ({CH2CO}-NYDWV[Bip]R[Orn][dL]RLVTCA-NH2; thioether N-14): the IC50 under setting [1] was 43.6 nM.
